Data published in ChEMBL document CHEMBL5725591, “Tricyclic PI3K inhibitor compounds and methods of use” (2018).

target: Phosphatidylinositol 4,5-bisphosphate 3-kinase catalytic subunit alpha isoform (Homo sapiens, UniProt P42336); test: p110alpha (alpha) PI3K Binding Assay: PI3K Binding assays are intended for determining the biochemical potency of small molecule PI3K inhibitors. The PI3K lipid kinase reaction is performed in the presence of PIP2:3PS lipid substrate (Promega #V1792) and ATP. Following the termination if the kinase reaction, turnover of ATP to ADP by the phosphorylation of the lipid substrate is detected using the Promega ADP-Glo¿ (Promega #V1792) assay.
Sequence (P42336 whole entry, canonical isoform): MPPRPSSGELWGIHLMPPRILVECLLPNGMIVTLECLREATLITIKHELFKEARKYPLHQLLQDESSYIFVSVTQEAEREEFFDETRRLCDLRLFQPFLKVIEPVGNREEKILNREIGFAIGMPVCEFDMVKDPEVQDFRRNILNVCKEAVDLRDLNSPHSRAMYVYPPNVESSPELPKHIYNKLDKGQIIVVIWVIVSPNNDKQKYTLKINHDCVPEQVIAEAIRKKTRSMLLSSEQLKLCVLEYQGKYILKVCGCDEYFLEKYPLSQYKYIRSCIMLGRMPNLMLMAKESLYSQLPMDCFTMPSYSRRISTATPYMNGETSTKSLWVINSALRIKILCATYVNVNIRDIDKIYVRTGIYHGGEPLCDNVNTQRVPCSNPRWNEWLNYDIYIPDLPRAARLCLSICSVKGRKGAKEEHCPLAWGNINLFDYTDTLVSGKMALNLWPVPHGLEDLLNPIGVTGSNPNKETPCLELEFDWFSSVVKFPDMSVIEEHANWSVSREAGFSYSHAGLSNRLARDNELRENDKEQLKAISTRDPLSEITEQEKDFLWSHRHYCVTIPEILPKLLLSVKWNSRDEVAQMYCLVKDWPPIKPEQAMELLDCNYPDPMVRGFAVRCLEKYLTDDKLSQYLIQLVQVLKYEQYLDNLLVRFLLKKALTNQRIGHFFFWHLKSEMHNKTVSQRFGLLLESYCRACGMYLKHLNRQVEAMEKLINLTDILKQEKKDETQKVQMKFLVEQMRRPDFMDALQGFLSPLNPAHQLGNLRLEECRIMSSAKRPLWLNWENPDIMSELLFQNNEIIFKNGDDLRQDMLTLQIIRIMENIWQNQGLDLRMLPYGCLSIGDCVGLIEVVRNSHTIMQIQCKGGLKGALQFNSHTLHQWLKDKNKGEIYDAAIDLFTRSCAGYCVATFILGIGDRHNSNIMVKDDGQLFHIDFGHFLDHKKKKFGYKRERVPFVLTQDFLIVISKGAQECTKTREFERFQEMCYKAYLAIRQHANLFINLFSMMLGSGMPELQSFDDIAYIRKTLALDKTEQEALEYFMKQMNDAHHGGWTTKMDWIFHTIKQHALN

| Compound | Ki [µM] |
| --- | --- |
| CC[C@H](Oc1cc2c3c(c1)nc(-c1ccc4oc(N)nc4c1)n3CCCO2)C(N)=O (single isomer, unassigned) | 0.00027 |
| Cn1cc(-c2nc3cc(N[C@H](C(N)=O)C4CC4)cc4c3n2CCCO4)cn1 | 0.359 |
| NC(=O)[C@@H](Nc1cc2c3c(c1)nc(-c1ccc4c(n1)OCCO4)n3CCCO2)C1CC1 | 0.0241 |
| CC[C@@H](Oc1cc2c3c(c1)nc(-c1ccc4oc(N)nc4c1)n3CCCO2)C(N)=O (single isomer, unassigned) | 0.0008 |
| Cn1ncnc1-c1nc2cc(N[C@H](C(N)=O)C3CC3)cc3c2n1CCCO3 | 0.396 |
